The record followed here is patent publication US10517913B2, “Composition for prevention, alleviation, or treatment of peripheral neuropathy comprising Lithospermi Radix extract as an effective component” (priority 2015, dated 2019).

The subject of this data set is PC-12 cells. Put plainly: NGF-induced neurite growth, quantitative image analysis. In kind it is cell-based. As to conditions: 200 nM oxaliplatin, NGF 100 ng/ml, 3 days. The protocol:
PC-12 was purchased from the ATCC (USA). The cells were cultured in a 100 mm cell culture dish coated with collagen type I in an incubator at 37° C., 5% CO2, using a DMEM basal medium supplemented with 5% non-heat inactivated fetal bovine serum (FBS), 10% heat inactivated horse serum (HS), 100 unit/ml penicillin, and 100 μg/ml streptomycin. The basal medium, sera, and other additives were purchased from the Thermo Fisher Scientific.
Specifically, PC-12 cells cultured according to [Materials and Methods 3-1] were evenly plated at 1×10^4 cells/well on a 24-well plate coated with collagen type IV in a DMEM growth medium where the cells were allowed to adhere on the bottom of the plate. After 12 hours, the medium was exchanged with a serum-free DMEM medium containing 100 ng/ml nerve growth factor (NGF) to induce neurite growth. The cells were treated with 200 nM oxaliplatin (Oxal) to induce neurotoxicity. Cells were co-treated with the Lithospermi Radix extract (WLR) prepared according to [Materials and Methods 1] at concentrations of 25 and 100 μg/ml, and amifostine (Ami) at 500 μM as a positive control. After 3 days, the ratios of cells forming neurites and the lengths of the neurites were quantified using image analysis under an optical microscope.

With `O=C1[O][Pt]2([NH][C@@H]3CCCC[C@H]3[NH]2)[O]C1=O` [oxaliplatin], the “neurite growth induced by nerve growth factor (NGF)” value was “inhibited”.
